What was measured:
Assay in all cases: Kinase selectivity, scanMAX Kinase assay panel (DiscoverX), % control at 1 uM
Format in all cases: binding
[1] = target: T1, scanMAX Kinase assay panel (Homo sapiens, UniProt Q8N5S9); settings: CAMKK1; 1 uM; read-out: Percent Control (%)
T1 construct: purchased DiscoverX
Procedure, shortened: (§1)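 1 uM cpd (DMSO) per kinase; % ctrl = [cpd − pos ctrl]/[neg ctrl − pos ctrl] × 100; hit if <35.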

[2] = target: T2, scanMAX Kinase assay panel (Homo sapiens, UniProt Q9H2X6); settings: HIPK2; 1 uM; read-out: Percent Control (%)
T2 construct: purchased DiscoverX
T2 sequence (Q9H2X6 whole entry): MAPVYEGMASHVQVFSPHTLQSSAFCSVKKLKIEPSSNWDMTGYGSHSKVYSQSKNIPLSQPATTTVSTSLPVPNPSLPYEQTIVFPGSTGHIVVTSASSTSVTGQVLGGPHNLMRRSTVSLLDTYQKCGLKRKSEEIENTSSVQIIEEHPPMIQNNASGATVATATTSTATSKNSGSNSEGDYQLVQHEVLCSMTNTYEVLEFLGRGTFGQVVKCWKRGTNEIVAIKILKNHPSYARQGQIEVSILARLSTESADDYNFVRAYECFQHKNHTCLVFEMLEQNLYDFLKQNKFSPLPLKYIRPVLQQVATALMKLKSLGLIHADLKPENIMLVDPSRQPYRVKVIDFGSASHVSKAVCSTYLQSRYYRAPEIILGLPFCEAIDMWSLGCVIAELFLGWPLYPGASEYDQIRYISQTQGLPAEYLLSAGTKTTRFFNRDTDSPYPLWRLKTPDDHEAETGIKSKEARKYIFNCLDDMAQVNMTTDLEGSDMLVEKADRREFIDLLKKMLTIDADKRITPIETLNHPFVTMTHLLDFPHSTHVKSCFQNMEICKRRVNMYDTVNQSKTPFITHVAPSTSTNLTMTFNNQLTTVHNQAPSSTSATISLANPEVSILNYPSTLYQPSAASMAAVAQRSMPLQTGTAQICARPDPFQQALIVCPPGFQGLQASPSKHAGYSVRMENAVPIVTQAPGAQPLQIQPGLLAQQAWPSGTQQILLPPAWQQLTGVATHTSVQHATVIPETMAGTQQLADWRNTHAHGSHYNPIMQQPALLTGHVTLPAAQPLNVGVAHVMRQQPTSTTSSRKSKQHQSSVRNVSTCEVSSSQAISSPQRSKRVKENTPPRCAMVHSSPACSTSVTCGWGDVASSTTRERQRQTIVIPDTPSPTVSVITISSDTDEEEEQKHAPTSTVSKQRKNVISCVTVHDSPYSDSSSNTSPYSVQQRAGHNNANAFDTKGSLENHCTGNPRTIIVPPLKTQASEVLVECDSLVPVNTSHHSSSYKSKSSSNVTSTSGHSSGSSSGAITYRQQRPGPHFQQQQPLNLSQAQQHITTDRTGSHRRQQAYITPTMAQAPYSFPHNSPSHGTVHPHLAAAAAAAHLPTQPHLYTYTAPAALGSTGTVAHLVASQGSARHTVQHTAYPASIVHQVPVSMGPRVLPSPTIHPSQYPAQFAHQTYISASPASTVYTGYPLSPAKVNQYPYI
Procedure, shortened: as §1

[3] = target: T3, scanMAX Kinase assay panel (Homo sapiens, UniProt P07332); settings: FES; 1 uM; read-out: Percent Control (%)
T3 construct: purchased DiscoverX
T3 sequence (P07332 whole entry): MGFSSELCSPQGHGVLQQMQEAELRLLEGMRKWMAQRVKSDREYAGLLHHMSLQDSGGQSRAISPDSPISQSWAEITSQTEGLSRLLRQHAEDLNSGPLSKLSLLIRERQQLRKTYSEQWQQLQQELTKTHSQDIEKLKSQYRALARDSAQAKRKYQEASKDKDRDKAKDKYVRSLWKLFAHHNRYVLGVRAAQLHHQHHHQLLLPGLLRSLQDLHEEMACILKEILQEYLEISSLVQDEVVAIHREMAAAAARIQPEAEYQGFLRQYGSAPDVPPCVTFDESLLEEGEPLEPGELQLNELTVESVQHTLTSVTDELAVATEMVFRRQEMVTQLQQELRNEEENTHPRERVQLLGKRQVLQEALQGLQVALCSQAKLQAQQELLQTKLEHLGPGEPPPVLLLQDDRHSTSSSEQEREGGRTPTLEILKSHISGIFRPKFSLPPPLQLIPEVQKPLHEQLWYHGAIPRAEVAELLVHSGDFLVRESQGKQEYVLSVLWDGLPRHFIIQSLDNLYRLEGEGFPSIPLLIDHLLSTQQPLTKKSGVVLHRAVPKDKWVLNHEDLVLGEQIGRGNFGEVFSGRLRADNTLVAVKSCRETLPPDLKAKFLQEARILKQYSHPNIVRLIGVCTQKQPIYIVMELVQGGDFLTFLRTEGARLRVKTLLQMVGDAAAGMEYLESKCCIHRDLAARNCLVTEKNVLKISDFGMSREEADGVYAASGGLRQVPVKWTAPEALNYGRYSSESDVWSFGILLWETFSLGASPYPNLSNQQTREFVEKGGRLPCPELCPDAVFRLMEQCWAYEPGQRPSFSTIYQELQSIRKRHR
Procedure, shortened: as §1

[4] = target: T4, scanMAX Kinase assay panel (Homo sapiens, UniProt Q8NEB9); settings: VPS34; 1 uM; read-out: Percent Control (%)
T4 construct: purchased DiscoverX
Procedure, shortened: as §1

[5] = target: T5, scanMAX Kinase assay panel (Homo sapiens, UniProt O75747); settings: PIK3C2G; 1 uM; read-out: Percent Control (%)
T5 construct: purchased DiscoverX
T5 sequence (O75747 1-1486): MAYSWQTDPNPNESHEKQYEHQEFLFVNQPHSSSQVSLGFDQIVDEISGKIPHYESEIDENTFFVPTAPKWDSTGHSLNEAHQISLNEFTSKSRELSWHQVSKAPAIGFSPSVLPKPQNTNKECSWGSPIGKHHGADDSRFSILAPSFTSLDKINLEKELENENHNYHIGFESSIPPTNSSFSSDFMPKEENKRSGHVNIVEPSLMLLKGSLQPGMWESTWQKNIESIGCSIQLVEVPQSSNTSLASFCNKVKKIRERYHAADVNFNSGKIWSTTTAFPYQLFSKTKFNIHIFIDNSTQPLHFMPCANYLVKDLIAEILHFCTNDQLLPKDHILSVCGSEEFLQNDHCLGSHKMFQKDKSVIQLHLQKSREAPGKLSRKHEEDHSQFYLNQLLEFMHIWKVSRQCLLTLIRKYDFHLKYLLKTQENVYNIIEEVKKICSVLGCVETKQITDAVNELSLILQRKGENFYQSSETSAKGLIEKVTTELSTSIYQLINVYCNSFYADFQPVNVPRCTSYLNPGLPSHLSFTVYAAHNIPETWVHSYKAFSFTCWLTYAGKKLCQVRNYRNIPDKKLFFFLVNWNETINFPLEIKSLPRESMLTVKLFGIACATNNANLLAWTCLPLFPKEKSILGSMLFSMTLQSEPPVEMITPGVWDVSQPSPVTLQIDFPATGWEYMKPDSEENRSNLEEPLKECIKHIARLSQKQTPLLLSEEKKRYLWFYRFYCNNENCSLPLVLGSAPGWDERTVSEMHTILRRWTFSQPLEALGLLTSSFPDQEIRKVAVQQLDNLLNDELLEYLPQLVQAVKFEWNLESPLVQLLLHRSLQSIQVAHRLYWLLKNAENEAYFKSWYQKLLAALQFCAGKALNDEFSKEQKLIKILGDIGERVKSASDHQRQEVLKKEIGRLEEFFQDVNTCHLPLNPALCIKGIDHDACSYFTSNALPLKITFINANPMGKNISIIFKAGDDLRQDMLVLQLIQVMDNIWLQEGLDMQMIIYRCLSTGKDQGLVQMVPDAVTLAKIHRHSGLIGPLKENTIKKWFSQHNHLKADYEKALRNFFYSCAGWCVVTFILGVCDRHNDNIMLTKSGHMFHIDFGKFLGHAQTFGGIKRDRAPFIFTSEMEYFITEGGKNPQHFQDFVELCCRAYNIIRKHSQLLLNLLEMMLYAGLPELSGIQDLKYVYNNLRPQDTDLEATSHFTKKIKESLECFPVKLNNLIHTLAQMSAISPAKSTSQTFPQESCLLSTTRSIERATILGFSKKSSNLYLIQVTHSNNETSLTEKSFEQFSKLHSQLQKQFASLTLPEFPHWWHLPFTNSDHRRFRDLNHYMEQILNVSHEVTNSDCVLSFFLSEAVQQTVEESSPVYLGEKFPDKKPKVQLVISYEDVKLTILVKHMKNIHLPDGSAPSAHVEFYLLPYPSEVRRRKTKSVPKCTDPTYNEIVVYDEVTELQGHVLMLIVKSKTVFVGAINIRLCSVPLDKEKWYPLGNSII
Procedure, shortened: as §1

[6] = target: T6, scanMAX Kinase assay panel (Homo sapiens, UniProt O43353); settings: RIPK2; 1 uM; read-out: Percent Control (%)
T6 construct: purchased DiscoverX
T6 sequence (O43353 whole entry): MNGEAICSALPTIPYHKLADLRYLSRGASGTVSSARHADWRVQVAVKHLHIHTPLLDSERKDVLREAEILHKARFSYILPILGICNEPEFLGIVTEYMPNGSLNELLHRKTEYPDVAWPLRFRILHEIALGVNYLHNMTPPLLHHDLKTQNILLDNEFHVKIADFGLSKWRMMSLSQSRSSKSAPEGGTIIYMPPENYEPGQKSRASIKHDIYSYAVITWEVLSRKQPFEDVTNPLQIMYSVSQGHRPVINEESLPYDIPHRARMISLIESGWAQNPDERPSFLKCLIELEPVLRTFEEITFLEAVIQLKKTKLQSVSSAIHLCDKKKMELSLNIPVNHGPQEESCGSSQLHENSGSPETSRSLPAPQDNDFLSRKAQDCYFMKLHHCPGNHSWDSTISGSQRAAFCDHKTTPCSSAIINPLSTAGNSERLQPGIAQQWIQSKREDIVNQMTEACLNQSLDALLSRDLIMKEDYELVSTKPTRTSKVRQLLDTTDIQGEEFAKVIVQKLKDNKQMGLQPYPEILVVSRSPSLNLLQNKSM
Procedure, shortened: as §1

[7] = target: T7, scanMAX Kinase assay panel (Homo sapiens, UniProt P49760); settings: CLK2; 1 uM; read-out: Percent Control (%)
T7 construct: purchased DiscoverX
T7 sequence (P49760 whole entry): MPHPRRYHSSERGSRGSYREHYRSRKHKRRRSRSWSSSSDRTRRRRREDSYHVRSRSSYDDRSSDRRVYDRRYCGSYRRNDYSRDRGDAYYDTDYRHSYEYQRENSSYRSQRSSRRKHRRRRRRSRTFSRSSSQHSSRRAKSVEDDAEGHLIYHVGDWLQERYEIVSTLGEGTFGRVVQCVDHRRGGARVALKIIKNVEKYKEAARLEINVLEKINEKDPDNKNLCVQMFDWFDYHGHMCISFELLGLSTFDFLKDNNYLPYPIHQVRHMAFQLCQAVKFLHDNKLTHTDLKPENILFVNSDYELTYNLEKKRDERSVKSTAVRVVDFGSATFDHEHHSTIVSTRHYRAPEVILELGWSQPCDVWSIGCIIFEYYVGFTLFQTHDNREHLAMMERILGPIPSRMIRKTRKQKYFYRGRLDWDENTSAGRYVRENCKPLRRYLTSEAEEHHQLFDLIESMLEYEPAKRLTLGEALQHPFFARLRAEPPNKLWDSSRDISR
Procedure, shortened: as §1

[8] = target: T8, scanMAX Kinase assay panel (Homo sapiens, UniProt P04049); settings: RAF1; 1 uM; read-out: Percent Control (%)
T8 construct: purchased DiscoverX
T8 sequence (P04049 whole entry): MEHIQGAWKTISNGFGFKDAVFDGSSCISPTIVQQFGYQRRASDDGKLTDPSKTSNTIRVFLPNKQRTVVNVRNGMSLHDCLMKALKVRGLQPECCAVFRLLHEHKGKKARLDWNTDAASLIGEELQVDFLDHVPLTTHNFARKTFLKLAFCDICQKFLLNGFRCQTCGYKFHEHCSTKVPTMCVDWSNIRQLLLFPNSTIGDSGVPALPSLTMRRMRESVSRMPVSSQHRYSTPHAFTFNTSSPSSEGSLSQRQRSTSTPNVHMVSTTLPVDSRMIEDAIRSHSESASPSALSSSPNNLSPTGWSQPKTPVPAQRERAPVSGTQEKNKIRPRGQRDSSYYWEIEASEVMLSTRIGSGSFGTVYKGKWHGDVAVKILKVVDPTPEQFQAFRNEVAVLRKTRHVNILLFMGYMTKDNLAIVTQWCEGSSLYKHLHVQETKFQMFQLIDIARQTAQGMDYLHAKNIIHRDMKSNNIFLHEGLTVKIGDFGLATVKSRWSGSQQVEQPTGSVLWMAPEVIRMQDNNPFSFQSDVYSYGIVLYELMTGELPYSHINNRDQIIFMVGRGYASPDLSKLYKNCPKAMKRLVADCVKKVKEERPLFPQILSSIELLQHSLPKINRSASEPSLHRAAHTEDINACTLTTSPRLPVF
Procedure, shortened: as §1

[9] = target: T9, scanMAX Kinase assay panel (Homo sapiens, UniProt Q86Y07); settings: VRK2; 1 uM; read-out: Percent Control (%)
T9 construct: purchased DiscoverX
T9 sequence (Q86Y07 whole entry): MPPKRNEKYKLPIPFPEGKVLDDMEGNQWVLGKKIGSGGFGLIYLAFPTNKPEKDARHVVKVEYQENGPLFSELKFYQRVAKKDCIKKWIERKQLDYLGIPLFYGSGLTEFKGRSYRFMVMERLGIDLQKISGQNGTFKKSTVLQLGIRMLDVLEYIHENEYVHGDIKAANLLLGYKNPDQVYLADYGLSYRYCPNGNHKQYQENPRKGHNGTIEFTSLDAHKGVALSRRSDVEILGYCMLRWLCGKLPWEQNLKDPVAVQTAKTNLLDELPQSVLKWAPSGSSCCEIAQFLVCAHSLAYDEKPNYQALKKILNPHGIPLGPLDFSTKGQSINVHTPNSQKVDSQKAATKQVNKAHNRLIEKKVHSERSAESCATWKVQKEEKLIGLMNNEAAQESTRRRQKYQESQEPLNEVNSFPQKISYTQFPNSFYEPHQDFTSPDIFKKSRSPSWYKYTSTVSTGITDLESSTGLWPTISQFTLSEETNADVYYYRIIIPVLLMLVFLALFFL
Procedure, shortened: as §1

T1 sequence (Q8N5S9 whole entry): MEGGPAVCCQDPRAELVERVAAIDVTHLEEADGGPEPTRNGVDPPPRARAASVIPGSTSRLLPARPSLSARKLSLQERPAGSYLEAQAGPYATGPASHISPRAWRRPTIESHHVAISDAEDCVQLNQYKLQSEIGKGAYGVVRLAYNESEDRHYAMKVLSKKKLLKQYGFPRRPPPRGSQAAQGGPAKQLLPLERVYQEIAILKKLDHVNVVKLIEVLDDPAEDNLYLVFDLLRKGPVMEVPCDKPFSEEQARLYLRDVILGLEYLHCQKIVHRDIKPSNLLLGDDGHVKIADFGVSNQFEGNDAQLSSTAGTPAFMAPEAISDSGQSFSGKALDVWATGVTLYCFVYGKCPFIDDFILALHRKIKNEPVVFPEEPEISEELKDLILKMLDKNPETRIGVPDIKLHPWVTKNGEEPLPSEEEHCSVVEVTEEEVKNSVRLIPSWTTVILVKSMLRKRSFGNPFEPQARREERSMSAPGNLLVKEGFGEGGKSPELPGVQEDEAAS

Structure (SMILES)	remaining binding at 1 µM [1] [%]	remaining binding at 1 µM [2] [%]	remaining binding at 1 µM [3] [%]	remaining binding at 1 µM [4] [%]	remaining binding at 1 µM [5] [%]	remaining binding at 1 µM [6] [%]	remaining binding at 1 µM [7] [%]	remaining binding at 1 µM [8] [%]	remaining binding at 1 µM [9] [%]
Cc1ccc(C(=O)Nc2ccc(CN3CCN(C)CC3)c(C(F)(F)F)c2)cc1C#Cc1cnc2c(Nc3cnn(C)c3)cccn12 [Example 1, 4-methyl-3-((8-((1-methyl-1H-pyrazol-4-yl)amino)imidazo[1,2-a]pyridin-3-yl)ethynyl)-N-(4-((4-methylpiperazin-1-yl)methyl)-3-(trifluoromethyl)phenyl)benzamide]	23	61	0	100	75	7	64	11	86
Cc1cn(-c2cc(NC(=O)c3ccc(C)c(C#Cc4cnc5c(Nc6cnn(C)c6)cccn45)c3)cc(C(F)(F)F)c2)cn1 [Example 12, 4-methyl-N-(3-(4-methyl-1H-imidazol-1-yl)-5-(trifluoromethyl)phenyl)-3-((8-((1-methyl-1H-pyrazol-4-yl)amino)imidazo[1,2-a]pyridin-3-yl)ethynyl)benzamide]	81	100	6	96	100	22	91	42	100
Cc1ccc(NC(=O)C2(C(=O)Nc3ccc(F)cc3)CC2)cc1C#Cc1cnc2c(Nc3cnn(C(C)C)c3)cccn12 [Example 78]	100	100	100	80	100	99	100	100	100

Source: patent US10870647B2, “Imidazopyridine derivative, method for preparing same, and pharmaceutical composition containing same as active ingredient for preventing or treating cancer” (DAEGU-GYEONGBUK MEDICAL INNOVATION FOUNDATION, priority 2016, dated 2020)
